# Laboratory results as given in PMC5095062, “The novel choline kinase inhibitor ICL-CCIC-0019 reprograms cellular metabolism and inhibits cancer cell growth” (Oncotarget, 2016).
# Read-outs that look alike come from different tables or passages of the source.
# Tests used:
# Plasma pharmacokinetics = assay type: in vivo, BALB/c mice; settings: for AUC / Cmax / half-life: female, BALB/c, mouse, plasma; for half-life: 10 mg/kg
# Description: Plasma pharmacokinetic parameters of ICL-CCIC-0019 were established in female BALB/c mice aged 6–8 weeks (Harlan). Mice were intraperitoneally (i.p.) or perorally (p.o.) administered a single dose of 10 mg/kg and blood collected by cardiac puncture after 5, 15, 30 minutes and 1, 2, 4, 6 and 24 h. For tissue pharmacokinetic studies, HCT116 xenograft bearing mice were administered 10 mg/kg ICL-CCIC-0019 i.p. and blood collected after 5 minutes, 2, 6 and 24 h. Plasma was obtained by centrifugation at 1000 × g for 10 minutes. Samples were snap-frozen and stored at −80°C prior to analysis. Analysis was carried out by Cyprotex Inc. using liquid chromatography–mass spectrometry (LC–MS). For analysis of plasma metabolites, 2-hour samples of tissue pharmacokinetic studies were pooled.
# HCT116 cells [1] = test: DNA cell cycle analysis (flow cytometry, propidium iodide); assay type: cell-based, human
# Description: Supernatant and cells were harvested, washed and centrifuged. The cell pellet was resuspended it 1 mL ice-cold PBS and the suspension added to 9 mL 70% ethanol, while mixing gently. Cells were fixed for at least 2 hours at −20°C. Cells were centrifuged and rehydrated in 3 mL cold PBS for 15 minutes. Samples were stained in 500 μL buffer containing 100 mM Tris pH 7.4, 150 mM NaCl, 1 mM CaCl2, 0.5 mM MgCl2, 0.1% Triton X-100, 0.1 mg/ml RNase A, 50 μg/ml propidium iodide (all items from Sigma-Aldrich) at 37°C for 3 h protected from light. Data were acquired on a BD FACS Canto flow cytometer (BD Bioscience) and analyzed using FlowJo 7.6.4 software (Tree Star).
# HCT116 cells [2] = test: Mitochondrial respiration (Seahorse XF24); assay type: cell-based, human; settings: 10 μM
# Description: Extracellular acidification and oxygen consumption rates (ECAR and OCR) were measured in a XF24 extracellular flux analyzer (Seahorse XF24 Extra Cellular Flux Analyzer, North Billerica, MA, USA). Basic XF assay medium was prepared as previously described supplemented with glucose, and the pH adjusted to 7.4 at 37°C. Indicated final concentrations of compounds were obtained by injecting appropriate amounts of compounds dissolved in DMSO or water and diluted in XF assay medium into ports. […] Indicated data points were obtained after 3 min mixing and 2 min wait, followed by 3 min of data collection. Data were normalized to the basal values.
# WNK1 = WNK1 (Homo sapiens, UniProt Q9H4A3); test: Kinase selectivity screen; assay type: biochemical; settings: WNK1, 10 μM
# Description: (§1) The substantially less demanding synthesis of ICL-CCIC-0019 compared with MN58B bears additional advantages. […] This consequently diminished intracellular PCho concentration, and importantly, the incorporation of [^3H]-choline into lipids (Figure 1D). […] To assess kinase specificity, ICL-CCIC-0019 was tested against a panel of 131 human kinases (Figure 1E and Supplementary Table S1). […] Inhibition greater than 20% was attained for insulin-like growth factor 1 (IGF-1R, 35 ± 7% inhibition), mitogen-activated protein kinase-activated protein kinase 3 (MAPKAP-K3, 33 ± 6%), extracellular signal regulated kinase 8 (ERK8, 31 ± 4%), ribosomal S6 kinase 1 (RSK1, 22 ± 6%), and v-erb-a erythroblastic leukemia viral oncogene homolog 4 (HER4, 21 ± 7%).
# RIPK2 = RIPK2 (Homo sapiens, UniProt O43353); test: Kinase selectivity screen; assay type: biochemical; settings: RIPK2, 10 μM
# Description: as §1
# MKK2 = MKK2 (Homo sapiens, UniProt P36507); test: Kinase selectivity screen; assay type: biochemical; settings: MKK2, 10 μM
# Description: as §1
# TTK = TTK (Homo sapiens, UniProt P33981); test: Kinase selectivity screen; assay type: biochemical
# Description: as §1
# p38b MAPK = p38b MAPK (Homo sapiens, UniProt Q15759); test: Kinase selectivity screen; assay type: biochemical
# Description: as §1
# MELK = MELK (Homo sapiens, UniProt Q14680); test: Kinase selectivity screen; assay type: biochemical
# Description: as §1
# MNK1 = MNK1 (Homo sapiens, UniProt Q9BUB5); test: Kinase selectivity screen; assay type: biochemical; settings: MNK1, 10 μM
# Description: as §1
# LKB1 = LKB1 (Homo sapiens, UniProt Q15831); test: Kinase selectivity screen; assay type: biochemical; settings: LKB1, 10 μM
# Description: as §1
# RSK2 = RSK2 (Homo sapiens, UniProt P51812); test: Kinase selectivity screen; assay type: biochemical; settings: RSK2, 10 μM
# Description: as §1
# Aurora A = Aurora A (Homo sapiens, UniProt O14965); test: Kinase selectivity screen; assay type: biochemical
# Description: as §1
# MLK1 = MLK1 (Homo sapiens, UniProt P80192); test: Kinase selectivity screen; assay type: biochemical; settings: MLK1, 10 μM
# Description: as §1
# HIPK2 = HIPK2 (Homo sapiens, UniProt Q9H2X6); test: Kinase selectivity screen; assay type: biochemical; settings: HIPK2, 10 μM
# Description: as §1
# CHKA = target: T1, CHKA (Homo sapiens, UniProt P35790); test: CHKA dimer integrity by BN-PAGE; assay type: cell-based; settings: HCT116 cells, 24 hours
# T1 construct: endogenous in cells; host or cells: HCT116
# Description: Native gels were run using blue native polyacrylamide gel electrophoresis (BN-PAGE) method. Cell homogenates were obtained by addition of passive lysis buffer (Promega) containing protease and phosphatase inhibitors to cell pellets and incubation for 30 minutes on a tube rotor at 4°C. Samples were cleared by centrifugation for 10 minutes at 12 000 × g at 4°C. Samples were prepared by mixing 30 μg protein with an equal volume of 2 × sample buffer (62.5 mM Tris-HCl, pH 6.8, 25% (v/v) glycerol, 0.01% (w/v) bromophenol blue, 0.02% (w/v) Coomassi Blue G250; all from Sigma-Aldrich). As control, D49N CHKA2 [58] was either applied under native conditions (100 ng diluted to 10 μL in 100 mM Tris buffer pH 7.4 added to 10 μL 2 × sample buffer) or denatured using SDS [100 ng diluted in RIPA buffer, 1 × NuPAGE LDS sample buffer and 1 × sample reducing agent (both Life Technologies)] and incubated at 70°C for 10 minutes. Samples were resolved on 4–15% mini-protean TGX gels using 1 × native running buffer (25 mM Tris, 192 mM glycine, pH 8.3). The cathode buffer was additionally supplemented with 750 μL Coomassi Blue G250 [final concentration ca. 0.04% (w/v)]. Membranes were transferred and probed as described above.
# MKK2, sequence (P36507 whole entry): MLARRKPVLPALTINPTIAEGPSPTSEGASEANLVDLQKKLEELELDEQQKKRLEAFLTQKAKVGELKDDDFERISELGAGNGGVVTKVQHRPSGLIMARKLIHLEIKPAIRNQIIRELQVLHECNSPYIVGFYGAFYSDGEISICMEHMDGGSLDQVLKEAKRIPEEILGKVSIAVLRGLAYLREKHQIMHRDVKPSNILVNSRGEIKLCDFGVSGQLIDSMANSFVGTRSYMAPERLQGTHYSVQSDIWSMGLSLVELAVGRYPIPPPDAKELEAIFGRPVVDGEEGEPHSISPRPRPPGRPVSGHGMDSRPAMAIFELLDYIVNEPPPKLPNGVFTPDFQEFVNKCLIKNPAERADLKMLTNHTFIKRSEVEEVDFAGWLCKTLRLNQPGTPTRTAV
# Aurora A, sequence (O14965 whole entry): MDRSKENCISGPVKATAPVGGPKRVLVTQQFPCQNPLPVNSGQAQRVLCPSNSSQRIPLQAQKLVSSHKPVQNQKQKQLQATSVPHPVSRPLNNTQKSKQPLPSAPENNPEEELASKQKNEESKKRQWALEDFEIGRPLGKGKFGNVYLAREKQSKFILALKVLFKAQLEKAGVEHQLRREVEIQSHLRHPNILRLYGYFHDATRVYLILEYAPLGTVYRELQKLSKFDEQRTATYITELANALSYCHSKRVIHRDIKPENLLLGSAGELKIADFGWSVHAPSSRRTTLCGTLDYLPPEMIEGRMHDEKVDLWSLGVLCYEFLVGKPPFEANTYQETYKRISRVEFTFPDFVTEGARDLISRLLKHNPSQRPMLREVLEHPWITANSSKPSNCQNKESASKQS
# WNK1, sequence (Q9H4A3 whole entry): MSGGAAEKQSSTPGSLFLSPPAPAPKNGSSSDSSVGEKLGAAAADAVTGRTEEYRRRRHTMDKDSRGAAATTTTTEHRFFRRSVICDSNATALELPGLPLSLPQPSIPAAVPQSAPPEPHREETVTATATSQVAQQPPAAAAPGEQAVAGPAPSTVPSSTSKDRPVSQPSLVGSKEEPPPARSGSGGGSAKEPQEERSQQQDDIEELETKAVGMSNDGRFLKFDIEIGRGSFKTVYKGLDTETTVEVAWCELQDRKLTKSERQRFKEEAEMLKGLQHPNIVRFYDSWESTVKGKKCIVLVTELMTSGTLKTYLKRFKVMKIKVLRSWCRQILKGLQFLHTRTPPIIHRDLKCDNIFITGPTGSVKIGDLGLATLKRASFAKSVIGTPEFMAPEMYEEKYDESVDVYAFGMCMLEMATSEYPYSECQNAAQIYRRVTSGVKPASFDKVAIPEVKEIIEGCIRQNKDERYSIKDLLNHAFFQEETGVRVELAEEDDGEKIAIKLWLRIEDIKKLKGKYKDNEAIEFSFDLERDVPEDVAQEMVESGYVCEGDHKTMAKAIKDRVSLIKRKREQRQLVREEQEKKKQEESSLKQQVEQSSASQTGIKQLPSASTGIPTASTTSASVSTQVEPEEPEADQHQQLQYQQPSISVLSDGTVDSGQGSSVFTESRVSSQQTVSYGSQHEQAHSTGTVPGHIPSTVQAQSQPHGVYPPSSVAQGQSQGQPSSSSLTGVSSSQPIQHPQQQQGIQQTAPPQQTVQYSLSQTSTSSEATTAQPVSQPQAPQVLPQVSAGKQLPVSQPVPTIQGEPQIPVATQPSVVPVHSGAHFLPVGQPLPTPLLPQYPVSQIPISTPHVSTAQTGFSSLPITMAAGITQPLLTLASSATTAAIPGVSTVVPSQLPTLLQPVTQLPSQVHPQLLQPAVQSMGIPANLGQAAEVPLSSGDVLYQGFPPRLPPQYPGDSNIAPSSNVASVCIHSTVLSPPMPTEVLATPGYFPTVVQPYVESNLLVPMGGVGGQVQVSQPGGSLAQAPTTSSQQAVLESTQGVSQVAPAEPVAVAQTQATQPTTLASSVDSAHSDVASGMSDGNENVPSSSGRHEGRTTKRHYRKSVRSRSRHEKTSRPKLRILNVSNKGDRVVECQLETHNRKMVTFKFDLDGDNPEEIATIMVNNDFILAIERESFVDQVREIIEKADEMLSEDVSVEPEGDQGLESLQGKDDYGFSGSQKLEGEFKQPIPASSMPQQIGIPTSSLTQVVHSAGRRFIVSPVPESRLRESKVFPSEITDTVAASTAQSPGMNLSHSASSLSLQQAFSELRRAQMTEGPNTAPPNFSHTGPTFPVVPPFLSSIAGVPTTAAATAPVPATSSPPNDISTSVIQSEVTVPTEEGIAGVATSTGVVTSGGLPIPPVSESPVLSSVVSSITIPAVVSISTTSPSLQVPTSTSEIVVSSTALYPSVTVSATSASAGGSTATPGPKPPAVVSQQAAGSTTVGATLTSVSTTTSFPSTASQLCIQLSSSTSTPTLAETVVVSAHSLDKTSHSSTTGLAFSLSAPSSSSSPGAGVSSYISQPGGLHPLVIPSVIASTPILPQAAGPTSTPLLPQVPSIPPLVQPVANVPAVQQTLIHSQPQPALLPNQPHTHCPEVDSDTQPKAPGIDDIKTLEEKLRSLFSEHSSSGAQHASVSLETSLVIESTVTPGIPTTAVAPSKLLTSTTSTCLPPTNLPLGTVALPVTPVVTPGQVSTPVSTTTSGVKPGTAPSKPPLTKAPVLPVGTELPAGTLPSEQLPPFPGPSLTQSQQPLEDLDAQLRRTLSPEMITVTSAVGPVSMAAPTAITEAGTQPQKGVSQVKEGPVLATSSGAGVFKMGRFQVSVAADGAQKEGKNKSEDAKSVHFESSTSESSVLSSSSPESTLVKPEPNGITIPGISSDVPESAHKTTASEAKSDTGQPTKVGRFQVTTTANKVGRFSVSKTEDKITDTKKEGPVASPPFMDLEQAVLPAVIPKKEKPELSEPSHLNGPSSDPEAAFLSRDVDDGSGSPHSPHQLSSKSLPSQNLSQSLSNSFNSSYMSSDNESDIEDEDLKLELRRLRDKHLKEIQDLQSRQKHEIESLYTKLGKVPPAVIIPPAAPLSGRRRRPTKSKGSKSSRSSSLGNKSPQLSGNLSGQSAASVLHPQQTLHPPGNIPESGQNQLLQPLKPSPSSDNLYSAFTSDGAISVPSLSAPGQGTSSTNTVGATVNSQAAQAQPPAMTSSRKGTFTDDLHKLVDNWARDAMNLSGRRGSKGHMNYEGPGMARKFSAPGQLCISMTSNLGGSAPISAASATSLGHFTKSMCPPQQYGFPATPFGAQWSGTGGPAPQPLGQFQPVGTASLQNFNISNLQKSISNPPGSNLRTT
# MELK, sequence (Q14680 whole entry): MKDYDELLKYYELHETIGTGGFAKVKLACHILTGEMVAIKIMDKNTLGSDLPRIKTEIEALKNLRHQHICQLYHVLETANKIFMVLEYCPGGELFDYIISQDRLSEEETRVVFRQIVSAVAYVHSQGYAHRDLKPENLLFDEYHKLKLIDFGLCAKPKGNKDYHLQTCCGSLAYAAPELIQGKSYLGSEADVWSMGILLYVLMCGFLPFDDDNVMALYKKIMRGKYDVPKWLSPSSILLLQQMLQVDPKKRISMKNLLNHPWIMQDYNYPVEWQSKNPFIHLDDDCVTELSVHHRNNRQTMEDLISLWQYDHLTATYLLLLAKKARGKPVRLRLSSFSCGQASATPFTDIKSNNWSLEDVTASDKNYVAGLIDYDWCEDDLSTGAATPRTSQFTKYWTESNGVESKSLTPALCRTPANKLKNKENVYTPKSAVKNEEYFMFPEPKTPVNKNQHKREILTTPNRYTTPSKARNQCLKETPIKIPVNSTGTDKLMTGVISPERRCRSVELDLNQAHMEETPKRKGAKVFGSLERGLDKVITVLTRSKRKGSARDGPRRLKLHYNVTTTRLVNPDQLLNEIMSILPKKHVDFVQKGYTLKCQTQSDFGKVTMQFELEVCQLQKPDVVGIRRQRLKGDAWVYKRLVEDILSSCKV
# MNK1, sequence (Q9BUB5 whole entry): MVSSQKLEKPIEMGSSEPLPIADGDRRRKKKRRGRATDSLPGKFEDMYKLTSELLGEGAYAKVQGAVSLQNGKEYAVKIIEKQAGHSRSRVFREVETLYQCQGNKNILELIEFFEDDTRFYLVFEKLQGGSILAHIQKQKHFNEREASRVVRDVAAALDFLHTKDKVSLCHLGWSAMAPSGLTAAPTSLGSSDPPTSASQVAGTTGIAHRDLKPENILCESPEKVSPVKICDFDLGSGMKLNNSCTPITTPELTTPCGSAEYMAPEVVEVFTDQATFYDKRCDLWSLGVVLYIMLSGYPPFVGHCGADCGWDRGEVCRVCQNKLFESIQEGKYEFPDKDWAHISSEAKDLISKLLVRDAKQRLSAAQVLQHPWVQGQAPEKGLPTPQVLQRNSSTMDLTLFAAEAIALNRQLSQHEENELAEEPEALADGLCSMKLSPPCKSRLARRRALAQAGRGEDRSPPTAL
# T1 sequence (P35790 whole entry): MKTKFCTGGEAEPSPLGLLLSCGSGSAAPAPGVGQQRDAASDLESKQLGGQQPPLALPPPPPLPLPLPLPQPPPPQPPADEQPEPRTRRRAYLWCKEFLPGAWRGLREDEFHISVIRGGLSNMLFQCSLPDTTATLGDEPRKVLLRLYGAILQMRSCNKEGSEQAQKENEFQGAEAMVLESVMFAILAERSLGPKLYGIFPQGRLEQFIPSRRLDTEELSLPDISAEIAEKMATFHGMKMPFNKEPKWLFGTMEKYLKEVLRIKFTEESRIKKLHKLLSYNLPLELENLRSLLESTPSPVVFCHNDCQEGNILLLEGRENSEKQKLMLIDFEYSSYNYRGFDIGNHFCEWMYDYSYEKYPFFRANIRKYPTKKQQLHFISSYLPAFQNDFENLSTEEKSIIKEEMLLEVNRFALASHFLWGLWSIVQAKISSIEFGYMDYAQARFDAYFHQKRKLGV
compound,measurement,setting,value
CN(C)c1cc[n+](CCCCCCCCCCCC[n+]2ccc(N(C)C)cc2)cc1 [ICL-CCIC-0019],oral bioavailability,Plasma pharmacokinetics; 10 mg/kg p.o.,limited
same,AUC,"Plasma pharmacokinetics; ip, 10 mg/kg I.P.",1.32 µM·h
same,Cmax,"Plasma pharmacokinetics; ip, 10 mg/kg I.P.",5300 nM
same,half-life,"Plasma pharmacokinetics; ip, 10 mg/kg I.P., read-out: t1/2 (1)",0.0967 h
same,half-life,"Plasma pharmacokinetics; ip, 10 mg/kg I.P., read-out: t1/2 (2) (converted)",11 h
same,half-life,"Plasma pharmacokinetics; po, 10 mg/kg P.O, read-out: t1/2 (1)",0.167 h
same,half-life,"Plasma pharmacokinetics; po, 10 mg/kg P.O, read-out: t1/2 (2) (converted)",56 h
same,AUC,"Plasma pharmacokinetics; po, 10 mg/kg P.O",0.05 µM·h
same,Cmax,"Plasma pharmacokinetics; po, 10 mg/kg P.O",36 nM
same,increase of cells in G1 phase,"HCT116 cells [1]; 10 μM, 24 h",2 fold
same,increase of sub-G1 population,HCT116 cells [1]; 48 h,3.7 fold
same,mitochondrial respiration immediately after adding inhibitor (acute effect),HCT116 cells [2],decreased mitochondrial respiration
same,remaining activity at 10 µM,WNK1,102%
same,remaining activity at 10 µM,RIPK2,102%
same,remaining activity at 10 µM,MKK2,95%
same,remaining activity at 10 µM,TTK,101%
same,remaining activity at 10 µM,p38b MAPK,107%
same,remaining activity at 10 µM,MELK,106%
same,remaining activity at 10 µM,MNK1,101%
same,remaining activity at 10 µM,LKB1,100%
same,remaining activity at 10 µM,RSK2,105%
same,remaining activity at 10 µM,Aurora A,98%
same,remaining activity at 10 µM,MLK1,91%
same,remaining activity at 10 µM,HIPK2,104%
same,CHKA enzyme dimerization,CHKA,not compromised
